{"source": "patent US5204470A", "about": "“Azabicyclic derivatives” (John Wyeth & Brother, Limited, priority 1990, dated 1993)", "key": {"5-HT3 receptors [1]": {"molecular_target": "T1, 5-HT3 receptors (Oryctolagus cuniculus, UniProt A0A5F9C9J3)", "T1 construct": "isolated right atrium of the rabbit heart; from tissue; host or cells: rabbit isolated right atrium (sympathetic nerve terminals)", "T1 sequence (A0A5F9C9J3 1-494)": "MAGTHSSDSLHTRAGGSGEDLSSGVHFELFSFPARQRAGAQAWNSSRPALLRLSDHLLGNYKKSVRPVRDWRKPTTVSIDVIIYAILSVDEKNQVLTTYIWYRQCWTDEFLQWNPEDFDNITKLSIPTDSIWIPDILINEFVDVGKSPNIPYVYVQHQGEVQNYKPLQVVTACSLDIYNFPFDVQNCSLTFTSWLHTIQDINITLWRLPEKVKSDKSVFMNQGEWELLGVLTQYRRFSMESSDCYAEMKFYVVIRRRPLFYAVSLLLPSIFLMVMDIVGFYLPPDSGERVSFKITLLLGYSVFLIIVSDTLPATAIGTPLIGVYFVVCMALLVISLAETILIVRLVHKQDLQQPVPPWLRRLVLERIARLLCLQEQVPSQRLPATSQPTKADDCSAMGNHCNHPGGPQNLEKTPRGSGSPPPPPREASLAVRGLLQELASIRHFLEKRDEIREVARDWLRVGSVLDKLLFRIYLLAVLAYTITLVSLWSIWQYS", "experiment": "5-HT3 antagonist activity in the isolated right atrium of the rabbit heart", "type": "cell-based", "conditions": "antagonism of 5-HT evoked increase in spontaneous rate of beating, read-out: apparent pKB (converted)", "procedure": "The compounds of the invention are also tested for 5-HT3 antagonist activity in the isolated right atrium of the rabbit heart based upon the method of Fozard J. R., Naunyn-Schmiedeberg's Arch. Pharmacol., 1984, 326, 36-44. This procedure relies upon the ability of 5-HT to stimulate 5-HT3 receptors present on symphetic nerve terminals in the heart, causing release of noradrenaline which evokes an increase in the spontaneous rate of beating. The antagonist potency is expressed in a similar manner to that of the preceding test method i.e. as an apparent pKB."}, "5-HT3 receptors [2]": {"molecular_target": "T2, 5-HT3 receptors (Rattus norvegicus, UniProt P35563)", "T2 construct": "isolated vagus nerve of the rat; from tissue; host or cells: rat isolated (cervical) vagus nerve", "T2 sequence (P35563 24-483)": "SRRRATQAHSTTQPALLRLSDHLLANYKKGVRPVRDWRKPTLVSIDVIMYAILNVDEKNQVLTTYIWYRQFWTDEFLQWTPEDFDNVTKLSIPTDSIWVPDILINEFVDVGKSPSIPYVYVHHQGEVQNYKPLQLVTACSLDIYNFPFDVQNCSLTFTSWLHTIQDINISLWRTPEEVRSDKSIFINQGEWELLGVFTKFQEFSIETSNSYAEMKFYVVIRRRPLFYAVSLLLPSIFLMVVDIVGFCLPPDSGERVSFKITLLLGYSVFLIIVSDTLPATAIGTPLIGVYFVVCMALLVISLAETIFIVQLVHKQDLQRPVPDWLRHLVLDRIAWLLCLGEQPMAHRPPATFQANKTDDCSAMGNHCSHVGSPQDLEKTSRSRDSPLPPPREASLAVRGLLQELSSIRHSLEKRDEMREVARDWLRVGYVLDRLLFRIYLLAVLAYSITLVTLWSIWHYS", "experiment": "5-HT3 receptor antagonism in the isolated vagus nerve of the rat (5-HT induced depolarization)", "type": "cell-based", "conditions": "isolated rat cervical vagus nerve; antagonism of 5-HT induced depolarization; estimated from 5-HT concentration ratios; read-out: apparent pKB (converted)", "procedure": "The compounds of the invention are tested for 5-HT3 receptor antagonism in the isolated vagus nerve of the rat by a method based upon that of Ireland S. J. and Tyers M. B., Brit. J. Pharmacol., 1987, 90, 229-238. The procedure relies upon the ability of 5-HT to induce depolarization of neurones in the cervical vagus nerve by a direct action on 5-HT3 receptors. A concentration-response curve to 5-HT induced depolarization is obtained and the antagonists are added to the bath containing the isolated nerve before repeating the 5-HT concentration-response curve. Antagonist potency is estimated for the 5-HT concentration ratios and expressed as an apparent pKB value (where KB is the antagonist dissociation constant)."}}}
{"molecule": "CN1C2C=C(Cc3ccc4ccccc4n3)CC1CC2", "note": "(centres unmarked) [Example 2, 3-(2-Quinolinylmethyl)-8-methyl-8-azabicyclo[3.2.1]oct-2-ene]", "values": [{"measurement": "Kb", "setting": "5-HT3 receptors [1]", "value": 2.51, "unit": "nM"}, {"measurement": "Kb", "setting": "5-HT3 receptors [2]", "value": 63.1, "unit": "nM"}]}
